Patent publication US6602888B2, “Use of α1C specific compounds to treat benign prostatic hyperplasia” (Synaptic Pharmaceutical Corporation, priority 1992, dated 2003)
Read-outs that look alike come from different tables or passages of the source.

Experiments:
[1] = target: T1, human α2B adrenergic receptor (Homo sapiens, UniProt P18089); assay: Competition binding, [3H]rauwolscine, α2B receptor; conditions: for Ki: read-out: Alpha-2 Adrenergic a2b (pK1) (converted)
T1 sequence (P18089 1-450): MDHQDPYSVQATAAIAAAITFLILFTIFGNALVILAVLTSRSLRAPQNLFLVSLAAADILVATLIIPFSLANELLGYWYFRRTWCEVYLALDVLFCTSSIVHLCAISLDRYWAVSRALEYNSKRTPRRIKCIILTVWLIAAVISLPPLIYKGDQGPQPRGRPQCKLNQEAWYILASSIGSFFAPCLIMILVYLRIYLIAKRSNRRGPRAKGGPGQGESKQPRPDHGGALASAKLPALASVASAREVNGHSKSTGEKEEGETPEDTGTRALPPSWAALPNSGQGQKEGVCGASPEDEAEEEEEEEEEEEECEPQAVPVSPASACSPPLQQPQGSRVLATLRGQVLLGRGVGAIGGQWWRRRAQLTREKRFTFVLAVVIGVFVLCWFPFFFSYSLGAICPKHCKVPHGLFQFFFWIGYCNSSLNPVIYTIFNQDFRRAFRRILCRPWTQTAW
Experimental: To determine the potency of α1 antagonists at the α2 receptors, LM(tk−) cell lines stably transfected with the genes encoding the α2A, α2B, and α2C receptors were used. The cell line expressing the α2A receptor is designated L-α2A, and was deposited on Nov. […] The cell line expressing the α2B receptor is designated L-NGC-α2B, and was deposited on Oct. […] The cell line expressing the α2C receptor is designated L-α2C, and was deposited on Nov. […] Cell lysates were prepared as described above (see Radioligand Binding Assays), and suspended in 25 mM glycylglycine buffer (pH 7.6 at room temperature).

[2] = target: T2, human histamine H2 receptor (Homo sapiens, UniProt P25021); assay: [3H]tiotidine binding, histamine H2 receptor; conditions: for Ki: read-out: Histamine H2 (pK1) (converted)
T2 construct: host or cells: COS-7, transient, DEAE-dextran
T2 sequence (P25021 whole entry): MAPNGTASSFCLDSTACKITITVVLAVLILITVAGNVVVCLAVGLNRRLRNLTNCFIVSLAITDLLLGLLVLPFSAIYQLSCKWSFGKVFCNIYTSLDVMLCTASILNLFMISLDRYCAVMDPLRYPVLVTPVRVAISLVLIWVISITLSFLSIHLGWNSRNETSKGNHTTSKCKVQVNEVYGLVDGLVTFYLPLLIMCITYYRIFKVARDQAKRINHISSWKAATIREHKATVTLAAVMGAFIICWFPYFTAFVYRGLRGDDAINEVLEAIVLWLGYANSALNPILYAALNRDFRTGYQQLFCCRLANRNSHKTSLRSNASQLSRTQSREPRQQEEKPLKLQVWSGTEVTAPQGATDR
Source text: The coding sequence of the human H2 receptor was obtained from a human placenta genomic library, and cloned into the cloning site of PCEXV-3 eukaryotic expression vector. The plasmid DNA for the H2 receptor is designated pcEXV-H2, and was deposited on Nov. […] This construct was transfected into COS-7 cells by the DEAE-dextran method.

human 5HT1Dα receptor = target: T3, human 5HT1Dα receptor (Homo sapiens, UniProt P28221); assay: [3H]serotonin competition binding, 5HT1Dα receptor
T3 construct: host or cells: LM(tk-) clonal cell line Ltk-8-30-84
T3 sequence (P28221 whole entry): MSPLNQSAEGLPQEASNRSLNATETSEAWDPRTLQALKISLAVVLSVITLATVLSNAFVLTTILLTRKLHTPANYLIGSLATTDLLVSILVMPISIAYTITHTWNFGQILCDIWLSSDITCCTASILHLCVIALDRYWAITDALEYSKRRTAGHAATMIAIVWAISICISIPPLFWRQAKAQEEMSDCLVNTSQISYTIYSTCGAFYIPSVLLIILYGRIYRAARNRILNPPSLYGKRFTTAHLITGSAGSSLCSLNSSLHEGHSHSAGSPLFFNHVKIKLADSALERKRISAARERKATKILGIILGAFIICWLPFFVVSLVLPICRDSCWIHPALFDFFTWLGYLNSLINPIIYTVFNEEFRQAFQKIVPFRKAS
Experimental: (§1) 5HT1Dα, 5HT1Dβ, 5HT1E, 5HT1F Receptors: The cell lysates of LM(tk−) clonal cell line stably transfected with the genes encoding each of these 5HT receptor-subtypes were prepared as described above. The cell line for the 5HT1Dα receptor, designated as Ltk-8-30-84, was deposited on Apr. […] The cell for the 5HT1Dβ receptor, designated as Ltk-11, was deposited on Apr. […] The cell line for the 5HT1E receptor, designated 5 HT1E-7, was deposited on Nov. […] The cell line for the 5HT1F receptor, designated L-5-HT1F, was deposited on Dec. […] These preparations were suspended in 50 mM Tris-HCl buffer (pH 7.4 at 37° C.) containing 10 mM MgCl2, 0.2 mM EDTA, 10 μM pargyline, and 0.1% ascorbate.

human 5HT1Dβ receptor = target: T4, human 5HT1Dβ receptor (Homo sapiens, UniProt P28222); assay: [3H]serotonin competition binding, 5HT1Dβ receptor
T4 construct: host or cells: LM(tk-) clonal cell line Ltk-11
T4 sequence (P28222 whole entry): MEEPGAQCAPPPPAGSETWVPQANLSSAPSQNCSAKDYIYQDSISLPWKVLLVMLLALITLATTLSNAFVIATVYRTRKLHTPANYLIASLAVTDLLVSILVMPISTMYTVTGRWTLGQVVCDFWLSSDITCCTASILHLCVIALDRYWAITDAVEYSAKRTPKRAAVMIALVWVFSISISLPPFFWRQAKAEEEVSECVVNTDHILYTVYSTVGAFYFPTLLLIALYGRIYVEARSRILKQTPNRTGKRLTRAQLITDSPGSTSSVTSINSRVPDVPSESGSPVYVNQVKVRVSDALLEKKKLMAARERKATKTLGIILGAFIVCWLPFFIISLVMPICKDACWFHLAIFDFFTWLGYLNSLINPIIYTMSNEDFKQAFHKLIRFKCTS
Experimental: as §1

human 5HT1E receptor = target: T5, human 5HT1E receptor (Homo sapiens, UniProt P28566); assay: [3H]serotonin competition binding, 5HT1E receptor
T5 construct: host or cells: LM(tk-) clonal cell line 5HT1E-7
T5 sequence (P28566 whole entry): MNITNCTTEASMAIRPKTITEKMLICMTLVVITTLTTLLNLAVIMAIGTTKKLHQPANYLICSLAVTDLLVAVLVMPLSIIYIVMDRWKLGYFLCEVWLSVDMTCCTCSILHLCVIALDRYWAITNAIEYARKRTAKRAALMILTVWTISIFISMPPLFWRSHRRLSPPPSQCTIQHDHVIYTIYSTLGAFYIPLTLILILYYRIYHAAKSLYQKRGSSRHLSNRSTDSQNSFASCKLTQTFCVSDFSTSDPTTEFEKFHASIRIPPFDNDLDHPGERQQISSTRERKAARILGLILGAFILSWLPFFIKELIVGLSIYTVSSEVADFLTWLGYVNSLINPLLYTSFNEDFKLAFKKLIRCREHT
Experimental: as §1

human 5HT1F receptor = target: T6, human 5HT1F receptor (Homo sapiens, UniProt P30939); assay: [3H]serotonin competition binding, 5HT1F receptor
T6 construct: host or cells: LM(tk-) clonal cell line L-5-HT1F
T6 sequence (P30939 1-366): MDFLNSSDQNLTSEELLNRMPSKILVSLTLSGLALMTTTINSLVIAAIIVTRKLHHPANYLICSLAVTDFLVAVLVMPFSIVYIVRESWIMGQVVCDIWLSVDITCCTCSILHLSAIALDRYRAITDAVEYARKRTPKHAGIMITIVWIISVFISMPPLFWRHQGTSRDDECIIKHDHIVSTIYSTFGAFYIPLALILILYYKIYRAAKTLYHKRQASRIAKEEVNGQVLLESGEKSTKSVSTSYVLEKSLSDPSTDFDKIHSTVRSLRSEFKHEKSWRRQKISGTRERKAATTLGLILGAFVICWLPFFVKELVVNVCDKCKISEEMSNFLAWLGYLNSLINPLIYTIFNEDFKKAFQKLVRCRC
Experimental: as §1

human D2 receptor = target: T7, human D2 receptor (Homo sapiens, UniProt P14416); assay: [3H]spiperone binding, dopamine D2 receptor; conditions: for Ki: read-out: Dopamine D2 (pK1)
T7 construct: host or cells: COS-7, transient, DEAE-dextran
T7 sequence (P14416 whole entry): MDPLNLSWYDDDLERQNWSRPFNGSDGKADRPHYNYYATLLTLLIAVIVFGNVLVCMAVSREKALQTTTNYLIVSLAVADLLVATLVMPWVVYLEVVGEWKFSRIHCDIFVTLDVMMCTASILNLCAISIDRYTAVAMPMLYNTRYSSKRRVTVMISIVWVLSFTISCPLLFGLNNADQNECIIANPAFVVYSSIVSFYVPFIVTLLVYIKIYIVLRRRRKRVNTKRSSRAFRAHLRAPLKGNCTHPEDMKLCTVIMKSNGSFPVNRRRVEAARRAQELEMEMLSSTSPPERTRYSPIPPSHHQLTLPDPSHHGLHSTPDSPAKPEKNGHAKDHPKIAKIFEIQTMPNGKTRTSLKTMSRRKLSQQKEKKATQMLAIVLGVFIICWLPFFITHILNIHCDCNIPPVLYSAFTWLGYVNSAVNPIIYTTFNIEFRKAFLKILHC
Experimental: The potency of α1 antagonists at the D2 receptor was determined using membrane preparations from COS-7 cells transfected with the gene encoding the human D2 receptor. The coding region for the human D2 receptor was obtained from a human striatum cDNA library, and cloned into the cloning site of PCDNA 1 eukariotic expression vector. The plasmid DNA for the D2 receptor is designated pcEXV-D2, and was deposited on Nov. […] This construct was transfected into COS-7 cells by the DEAE-dextran method. […] The cell lysates were incubated with [3H]spiperone (2 nM), using 10 μM (+)Butaclamol to determine nonspecific binding.

[3] = target: T8, human α1A adrenergic receptor (Homo sapiens, UniProt P25100); assay: Radioligand binding, [3H]prazosin, cloned human α1A adrenergic receptor
T8 sequence (P25100 1-572): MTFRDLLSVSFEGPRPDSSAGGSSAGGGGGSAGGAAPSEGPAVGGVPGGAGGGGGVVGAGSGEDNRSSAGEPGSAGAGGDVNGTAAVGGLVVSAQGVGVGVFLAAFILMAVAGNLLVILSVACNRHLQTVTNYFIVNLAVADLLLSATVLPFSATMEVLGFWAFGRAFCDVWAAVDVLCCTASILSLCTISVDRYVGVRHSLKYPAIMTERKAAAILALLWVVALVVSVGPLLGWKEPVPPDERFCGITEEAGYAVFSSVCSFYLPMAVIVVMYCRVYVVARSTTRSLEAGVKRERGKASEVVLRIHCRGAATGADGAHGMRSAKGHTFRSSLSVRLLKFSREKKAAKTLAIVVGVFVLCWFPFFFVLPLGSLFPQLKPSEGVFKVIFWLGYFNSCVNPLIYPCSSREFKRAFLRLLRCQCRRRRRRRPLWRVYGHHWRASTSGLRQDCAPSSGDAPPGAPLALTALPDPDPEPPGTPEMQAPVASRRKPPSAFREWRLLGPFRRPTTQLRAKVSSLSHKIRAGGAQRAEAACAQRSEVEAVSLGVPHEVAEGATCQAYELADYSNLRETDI

human prostate tissue = assay: Antagonism of phenylephrine-induced contraction of human prostatic tissue; conditions: pA2, phenylephrine-induced contraction, dose-ratio method
Experimental: An index of this efficacy can be obtained by determining the potency of α1 antagonists to antagonize the contraction of human prostatic tissue induced by an α1 agonist “in vitro”.
Prostatic adenomas were obtained at the time of surgery from patients with symptomatic BPH. […] Isometric tension was measured with a Grass Instrument FT03 force transducer interfaced with a computer. Tissue strips were contracted with varying concentrations of phenylephrine after incubating for 20 minutes in the absence and presence of at least three different concentrations of antagonist. Dose-response curves for phenylephrine were constructed, and the antagonist potency (pA2) was estimated by the dose-ratio method.

[4] = Table 2, cloned human receptor, read-out: Serotonin 5HT1Da (pK1)
[5] = Table 2, cloned human receptor, read-out: Serotonin 5HT1Db (pK1)
[6] = Table 2, cloned human receptor, read-out: Serotonin 5HT1E (pK1)
[7] = Table 2, cloned human receptor, read-out: Serotonin 5HT1F (pK1)

Compound | Serotonin 5HT1Da (pK1) (human 5HT1Dα receptor; Table 2, cloned human receptor) | Serotonin 5HT1Db (pK1) (human 5HT1Dβ receptor; Table 2, cloned human receptor) | Serotonin 5HT1E (pK1) (human 5HT1E receptor; Table 2, cloned human receptor) | Serotonin 5HT1F (pK1) (human 5HT1F receptor; Table 2, cloned human receptor) | Human Prostate (pA) (human prostate tissue) | Alpha-2 Adrenergic a2b (pK1) ([1]; Table 2, cloned human receptor) | Histamine H2 (pK1) ([2]; Table 2, cloned human receptor) | Dopamine D2 (pK1) (human D2 receptor; Table 2, cloned human receptor) | Alpha-1 Adrenergic a1A (pK1) ([3]; Table 2, cloned human receptor) | Ki ([2]; Table 2, cloned human receptor) | Ki (human D2 receptor; Table 2, cloned human receptor) | Ki ([1]; Table 2, cloned human receptor) | other results
4-fluoro-4-(8-fluoro-1,3,4,5-tetrahydro-2H-pyrido[4,3-b]indol-2-yl)butyrophenone hydrochloride [Compound A-30360, reference compound] | <6.0 | <6.0 | <5.0 | <5.0 | 8.72 |  |  |  |  |  |  |  | Alpha-2 Adrenergic a2b (pK1) [1]: 6.37; Histamine H2 (pK1) [2]: 5.77; Dopamine D2 (pK1) (human D2 receptor): <9.0; Alpha-1 Adrenergic a1A (pK1) [3]: 7.49
COc1ccccc1N1CCN(CCCNc2c(C)c(=O)n(C)c(=O)n2C)CC1 [5-Methyl-Urapidil, 5-methylurapidil, reference compound] | 7.30 | 6.82 |  |  | 8.38 | 7.38 | 4.47 | <5.0 | 7.79 |  |  |  | 
O=C(CCCN1CCC(NC(=O)c2ccccc2)CC1)c1ccc(Cl)cc1 [Compound 7] | <6.0 | <5.0 | <5.0 | <5.0 | 7.63 | 6.07 | 6.02 | <7.0 | 6.82 |  |  |  | 
COC(=O)C1=C(C)NC(C)=C(C(=O)OCCCN2CCC(c3ccccc3)(c3ccccc3)CC2)C1c1ccc([N+](=O)[O-])cc1.Cl (stereo not shown) [Compound 8, 2,6-Dimethyl-4-(4-nitrophenyl)-1,4-dihydropyridine-3,5-dicarboxylic acid [3-(4,4-diphenylpiperidin-1-yl)propyl] ester methyl ester hydrochloride] |  |  |  |  | 7.46 | 6.12 |  |  | 6.52 | 0.776 µM | > 1 µM |  | Ki (human 5HT1Dα receptor): > 1 µM; Ki (human 5HT1Dβ receptor): > 10 µM; Ki (human 5HT1E receptor): > 10 µM; Ki (human 5HT1F receptor): > 10 µM
O=C(CCCN1CCC(NC(=O)c2ccccc2)CC1)c1ccccc1 [Compound 9] | <6.0 | <6.0 | <5.0 | <5.0 | 7.41 | 5.69 | 5.44 | <7.0 | 6.12 |  |  |  | 
COc1ccc(CCNCC2CCc3ccccc3C2)cc1 (stereo not shown) [Compound 11, 2-[(4-Methoxyphenethyl)aminomethyl]-1,2,3,4-tetrahydronaphthalene] |  |  |  |  | 6.64 |  |  |  | 6.81 | 0.0355 µM | > 1 µM | 0.126 µM | Ki (human 5HT1Dα receptor): > 1 µM; Ki (human 5HT1Dβ receptor): > 1 µM; Ki (human 5HT1E receptor): > 10 µM; Ki (human 5HT1F receptor): > 10 µM; Ki [3]: 0.155 µM; Human Prostate (pA) (human prostate tissue; listed as SNAP 5036): low
O=C(NC1CCN(CCc2c[nH]c3ccccc23)CC1)c1ccccc1 [Indoramin, reference compound] |  |  |  |  | 7.86 |  |  |  |  | 2.34 µM | > 0.01 µM | 1.91 µM | Ki (human 5HT1Dα receptor; [4]): > 1 µM; Ki (human 5HT1Dβ receptor; [5]): > 1 µM; Ki (human 5HT1E receptor; [6]): > 10 µM; Ki (human 5HT1F receptor; [7]): > 10 µM
C=Cc1sc2ccc(Cl)c3c2c1CN(C)CC3 [SKF-104856, 7-Chloro-2-ethenyl-3,4,5,6-tetrahydro-4-methylthieno[4,3,2-ef][3]benzazepine, reference compound] |  |  |  |  | 7.66 |  |  |  |  | 1.45 µM | > 0.1 µM | 0.00324 µM | Ki (human 5HT1Dα receptor; [4]): > 0.1 µM; Ki (human 5HT1Dβ receptor; [5]): > 0.1 µM; Ki (human 5HT1E receptor; [6]): > 1 µM; Ki (human 5HT1F receptor; [7]): > 0.1 µM
